Our source for the mortality and Activity values is ChEMBL document CHEMBL4177616, “Potent anti-melanogenic activity and favorable toxicity profile of selected 4-phenyl hydroxycoumarins in the zebrafish model and the computational molecular modeling studies” (Bioorg Med Chem, 2017).

The source made the active and inactive calls. The calls are words filed in the database; no cut-off is given here.

Data set [1] can be described thus: in vivo. The note with it: zebrafish.
Description: Toxicity in wild type zebrafish embryos assessed as dead embryo at 6.25 ug/ml treated for 96 hrs post fertilization starting from 6 hrs post fertilization by inverted microscopic analysis relative to control
Data set [2] is filed under the species Danio rerio. Kind of data set: Toxicity in wild type zebrafish embryos assessed as skeletal deformities at 2500 ug/ml treated for 96 hrs post fertilization starting from 6 hrs post fertilization by inverted microscopic analysis relative to control. Type of data set: organism-based. The following applies: in vivo.
The species named for data set [3] is Danio rerio. Kind of data set: Toxicity in wild type zebrafish embryos assessed as blood circulation at 500 ug/ml treated for 96 hrs post fertilization starting from 6 hrs post fertilization by inverted microscopic analysis relative to control. Type of data set: organism-based. The note with it: in vivo.
For data set [4], the species on record is Danio rerio. Kind of data set: Toxicity in wild type zebrafish embryos assessed as otoliths at 2500 ug/ml treated for 96 hrs post fertilization starting from 6 hrs post fertilization by inverted microscopic analysis relative to control. The note with it: in vivo. The format is organism-based.
The species named for data set [5] is Danio rerio. Kind of data set: Toxicity in wild type zebrafish embryos assessed as heart beat at 2500 ug/ml treated for 96 hrs post fertilization starting from 6 hrs post fertilization by inverted microscopic analysis relative to control. The format is organism-based. The note with it: in vivo.
For data set [6], the species on record is Danio rerio. Briefly: Toxicity in wild type zebrafish embryos assessed as head malformation at 1000 ug/ml treated for 96 hrs post fertilization starting from 6 hrs post fertilization by inverted microscopic analysis relative to control. Type of data set: organism-based. The note with it: in vivo.
The species entered for data set [7] is Danio rerio. Briefly: Toxicity in wild type zebrafish embryos assessed as growth retardation at 500 ug/ml treated for 96 hrs post fertilization starting from 6 hrs post fertilization by inverted microscopic analysis relative to control. Type of data set: organism-based. The following applies: in vivo.
The species entered for data set [8] is Danio rerio. Briefly: Anti-melanogenic activity in wild type zebrafish 24 hrs post fertilization embryos assessed as decrease in body pigmentation at >= 500 ug/ml after 48 hrs. The format is functional, organism-based.
In data set [9] the test system is Danio rerio. Kind of data set: Toxicity in wild type zebrafish embryos assessed as pericardial edema at 500 ug/ml treated for 96 hrs post fertilization starting from 6 hrs post fertilization by inverted microscopic analysis relative to control. Type of data set: organism-based. The following applies: in vivo.
The species named for data set [10] is Danio rerio. Briefly: Toxicity in wild type zebrafish embryos assessed as teratogenic embryo at 1000 ug/ml treated for 96 hrs post fertilization starting from 6 hrs post fertilization by inverted microscopic analysis relative to control. Type of data set: organism-based. The following applies: in vivo.
The species entered for data set [11] is Danio rerio. Kind of data set: Toxicity in wild type zebrafish embryos assessed as notochord at 2500 ug/ml treated for 96 hrs post fertilization starting from 6 hrs post fertilization by inverted microscopic analysis relative to control. The note with it: in vivo. Type of data set: organism-based.
Data set [12] is filed under the species Danio rerio. Kind of data set: Toxicity in wild type zebrafish embryos assessed as teratogenic embryo at 500 ug/ml treated for 96 hrs post fertilization starting from 6 hrs post fertilization by inverted microscopic analysis relative to control. The following applies: in vivo. The format is organism-based.
For data set [13], the species on record is Danio rerio. Briefly: Toxicity in wild type zebrafish embryos assessed as teratogenic embryo at 2000 ug/ml treated for 96 hrs post fertilization starting from 6 hrs post fertilization by inverted microscopic analysis relative to control. The format is organism-based. The note with it: in vivo.
For data set [14], the system named is Danio rerio. Briefly: Toxicity in wild type zebrafish embryos assessed as yolk edema at 1000 ug/ml treated for 96 hrs post fertilization starting from 6 hrs post fertilization by inverted microscopic analysis relative to control. Type of data set: organism-based. The following applies: in vivo.
Data set [15] is described as follows: Toxicity in wild type zebrafish embryos assessed as dead embryo at 2500 ug/ml treated for 96 hrs post fertilization starting from 6 hrs post fertilization by inverted microscopic analysis relative to control. The format is organism-based, Danio rerio. The following applies: in vivo, read-out: Activity.
The species named for data set [16] is Danio rerio. Kind of data set: Toxicity in wild type zebrafish embryos assessed as unhatched embryo at 1000 ug/ml treated for 96 hrs post fertilization starting from 6 hrs post fertilization by inverted microscopic analysis relative to control. The format is organism-based. The following applies: in vivo.
Data set [17] is filed under the species Danio rerio. Briefly: Toxicity in wild type zebrafish embryos assessed as blood circulation at 1000 ug/ml treated for 96 hrs post fertilization starting from 6 hrs post fertilization by inverted microscopic analysis relative to control. The following applies: in vivo. Type of data set: organism-based.
Data set [18] in a line: Toxicity in wild type zebrafish embryos assessed as dead embryo at 1000 ug/ml treated for 96 hrs post fertilization starting from 6 hrs post fertilization by inverted microscopic analysis relative to control. The format is organism-based, Danio rerio. The note with it: in vivo, read-out: Activity.
The species entered for data set [19] is Danio rerio. Briefly: Toxicity in wild type zebrafish embryos assessed as normal embryo at 2500 ug/ml treated for 96 hrs post fertilization starting from 6 hrs post fertilization by inverted microscopic analysis relative to control. The format is organism-based. The following applies: in vivo.
In data set [20] the test system is Danio rerio. Briefly: Toxicity in wild type zebrafish embryos assessed as yolk edema at 100 ug/ml treated for 96 hrs post fertilization starting from 6 hrs post fertilization by inverted microscopic analysis relative to control. The format is organism-based. The note with it: in vivo.
The species entered for data set [21] is Danio rerio. Briefly: Toxicity in wild type zebrafish embryos assessed as eyes at 2500 ug/ml treated for 96 hrs post fertilization starting from 6 hrs post fertilization by inverted microscopic analysis relative to control. Type of data set: organism-based. The following applies: in vivo.
The subject of data set [22] is Danio rerio. Briefly: Toxicity in wild type zebrafish embryos assessed as yolk edema at 2500 ug/ml treated for 96 hrs post fertilization starting from 6 hrs post fertilization by inverted microscopic analysis relative to control. Type of data set: organism-based. The following applies: in vivo.
Data set [23] is filed under the species Danio rerio. Briefly: Toxicity in wild type zebrafish embryos assessed as unhatched embryo at 100 ug/ml treated for 96 hrs post fertilization starting from 6 hrs post fertilization by inverted microscopic analysis relative to control. Type of data set: organism-based. The note with it: in vivo.
The species entered for data set [24] is Danio rerio. Briefly: Toxicity in wild type zebrafish embryos assessed as head malformation at 100 ug/ml treated for 96 hrs post fertilization starting from 6 hrs post fertilization by inverted microscopic analysis relative to control. The format is organism-based. The following applies: in vivo.
The species entered for data set [25] is Danio rerio. Briefly: Toxicity in wild type zebrafish embryos assessed as otoliths at 100 ug/ml treated for 96 hrs post fertilization starting from 6 hrs post fertilization by inverted microscopic analysis relative to control. The format is organism-based. The note with it: in vivo.
The species named for data set [26] is Danio rerio. Briefly: Toxicity in wild type zebrafish embryos assessed as blood circulation at 2000 ug/ml treated for 96 hrs post fertilization starting from 6 hrs post fertilization by inverted microscopic analysis relative to control. The following applies: in vivo. The format is organism-based.
For data set [27], the system named is Danio rerio. Briefly: Toxicity in wild type zebrafish embryos assessed as pericardial edema at 2000 ug/ml treated for 96 hrs post fertilization starting from 6 hrs post fertilization by inverted microscopic analysis relative to control. The format is organism-based. The note with it: in vivo.
For data set [28], the species on record is Danio rerio. Briefly: Toxicity in wild type zebrafish embryos assessed as eyes at 2000 ug/ml treated for 96 hrs post fertilization starting from 6 hrs post fertilization by inverted microscopic analysis relative to control. Type of data set: organism-based. The note with it: in vivo.
The species entered for data set [29] is Danio rerio. Briefly: Toxicity in wild type zebrafish embryos assessed as skeletal deformities at 15 ug/ml treated for 96 hrs post fertilization starting from 6 hrs post fertilization by inverted microscopic analysis relative to control. The format is organism-based. The following applies: in vivo.
Data set [30] is filed under the species Danio rerio. Briefly: Toxicity in wild type zebrafish embryos assessed as head malformation at 50 ug/ml treated for 96 hrs post fertilization starting from 6 hrs post fertilization by inverted microscopic analysis relative to control. Type of data set: organism-based. The note with it: in vivo.
Data set [31] is filed under the species Danio rerio. Kind of data set: Toxicity in wild type zebrafish embryos assessed as unhatched embryo at 50 ug/ml treated for 96 hrs post fertilization starting from 6 hrs post fertilization by inverted microscopic analysis relative to control. The note with it: in vivo. Type of data set: organism-based.
Data set [32] is filed under the species Danio rerio. Kind of data set: Toxicity in wild type zebrafish embryos assessed as normal embryo at 15 ug/ml treated for 96 hrs post fertilization starting from 6 hrs post fertilization by inverted microscopic analysis relative to control. Type of data set: organism-based. The note with it: in vivo.
Data set [33] is filed under the species Danio rerio. Briefly: Toxicity in wild type zebrafish embryos assessed as heart beat at 15 ug/ml treated for 96 hrs post fertilization starting from 6 hrs post fertilization by inverted microscopic analysis relative to control. The format is organism-based. The following applies: in vivo.
Data set [34] relates to Melanocyte. Kind of data set: Anti-melanogenic activity in wild type zebrafish embryo melanocytes assessed as decrease in pigmentation at 25 ug/ml treated for 72 hrs post fertilization starting from 6 to 24 hrs post fertilization. Type of data set: functional, cell-based. The following applies: Danio rerio.
Data set [35] is filed under the species Danio rerio. Kind of data set: Toxicity in wild type zebrafish embryos assessed as skeletal deformities at 20 ug/ml treated for 96 hrs post fertilization starting from 6 hrs post fertilization by inverted microscopic analysis relative to control. The format is organism-based. The following applies: in vivo.
Data set [36] deals with Danio rerio. Kind of data set: Toxicity in wild type zebrafish embryos assessed as pericardial edema at 50 ug/ml treated for 96 hrs post fertilization starting from 6 hrs post fertilization by inverted microscopic analysis relative to control. Type of data set: organism-based. The note with it: in vivo.
For data set [37], the system named is Neutrophil. Kind of data set: Anti-melanogenic activity in mpx:GFP transgenic zebrafish 24 hrs post fertilization embryo neutrophils assessed as decrease in pigmentation at 25 ug/ml. Type of data set: functional, cell-based. The note with it: Danio rerio.

In data set [1], `Oc1ccc(O)cc1` [HYDROQUINONE] registered a mortality at 6.25 ug/ml of 0%.

`O=c1cc(CO)occ1O` [KOJIC ACID]: the Activity is listed as 98.33% in [2]; 0% in [3]; 86.67% in [4]; 100% in data set [5]; 0% in data set [6]; 0% in data set [7]. Further, the Activity in [9] was 86.67%; in data set [10], 98.33%; in [11] it was 0%; in [12], 86.67%; in data set [13], 100%; in data set [14] it was 0%. The Activity came out at 0% in [16]; 0% in data set [17]; 0% in data set [19]; 0% in data set [20]; 0% in [21]; 5% in data set [22]. The Activity in data set [23] turned out to be 0%; in data set [24], 0%; in data set [25] it was 0%; in data set [26], 6.67%; in [27], 100%; in data set [28], 0%. Also, the result in data set [8] was Active. Also, the mortality at 2500 ug/ml in data set [15] came to 0%. In addition, the mortality at 1000 ug/ml in [18] is 0%.

Take `O=c1cc(-c2ccccc2)c2ccc(O)cc2o1`: the Activity in [29] came out at 0%; in data set [30], 0%; in data set [31] it was 0%; in data set [32], 100%; in [33], 0%; in [35] it was 0%. Further, the Activity in [36] is recorded as 0%. Also, the outcome in data set [34] and in [37] was Active.

For `O=c1cc(-c2ccccc2)c2c(O)cc(O)cc2o1`, the Activity in data set [29] was found to be 0%; in data set [30], 0%; in [31], 0%; in data set [32], 100%; in [33], 0%; in [35], 0%. The Activity in [36] was found to be 5%. For the same compound, the outcome in data set [34] and in data set [37] was Active.
